From patent US9995734B2, “Human T cell line assay for evaluating the immunologic identity of glatiramer acetate preparations” (Mylan Inc., priority 2013, dated 2018)
Where “and” joins values, the source holds several entries; their conditions need not be identical. Equal values may be shown once.

How the values were obtained:
Format in all cases: cell-based, human
Donor 3 GMA T-Cell Lines = assay: ATP proliferation assay (CellTiter Glo), Donor 3 GMA T-cell lines, incl. reactivity to non-canonical GA peptides; settings: for Non-Canonical Peptide Non-Reactivity: proliferation <2 times no antigen control; for Non-Canonical Peptide Reactivity: at least one proliferation value >=2 times no antigen control
Donor 4 COP T-Cell Lines = assay: ATP proliferation assay (CellTiter Glo), Donor 4 COP T-cell lines, incl. reactivity to non-canonical GA peptides; settings: for Non-Canonical Peptide Non-Reactivity: proliferation <2 times no antigen control; for Proliferation (luminescent ATP assay), Mean: T-cell line 205-1F4, autologous B-LCL
Donor 3 COP T-Cell Lines = assay: ATP proliferation assay (CellTiter Glo), Donor 3 COP T-cell lines, incl. reactivity to non-canonical GA peptides; settings: for Non-Canonical Peptide Reactivity: at least one proliferation value >=2 times no antigen control

## poly (Lys-Tyr; 1:1) [LT 11]
Donor 3 GMA T-Cell Lines; 165-05G (so in the source), minimum 55 days in culture, 0, 1, 3, 10 μg/mL
  proliferation response to non-canonical GA peptides: responded
Donor 3 GMA T-Cell Lines; 165-B5G
  Non-Canonical Peptide Non-Reactivity: LT 11
Donor 3 GMA T-Cell Lines; 165-C5G
  Non-Canonical Peptide Reactivity: LT 11
Donor 3 GMA T-Cell Lines; 165-E7G
  Non-Canonical Peptide Non-Reactivity: LT 11
Donor 3 GMA T-Cell Lines; 165-E9G
  Non-Canonical Peptide Non-Reactivity: LT 11
Donor 3 GMA T-Cell Lines; 165-F5G
  Non-Canonical Peptide Non-Reactivity: LT 11
Donor 3 GMA T-Cell Lines; 165-F10G
  Non-Canonical Peptide Reactivity: LT 11
Donor 3 GMA T-Cell Lines; 165-H11G
  Non-Canonical Peptide Non-Reactivity: LT 11
Donor 3 GMA T-Cell Lines; Donor 3 GMA lines, at least a 50% increase in proliferation relative to a control after stimulation with the non-canonical GA peptide
  Reactive T-Cell Line: 165-C5G (Donor 3) and 165-F10G (Donor 3)
Donor 3 GMA T-Cell Lines; Donor 3 GMA lines, stimulation with the non-canonical GA peptide
  Nonreactive T-Cell Line: 165-B5G (Donor 3) and 165-F5G (Donor 3) and 165-E7G (Donor 3) and 165-E9G (Donor 3) and 165-H11G (Donor 3)
Donor 3 GMA T-Cell Lines; T-cell line 165-B5G, 1.25 μg/mL antigen, Day 55 of culturing, No Antigen Value 846
  Proliferation (luminescent ATP assay), Mean: 1497 RLU
Donor 3 GMA T-Cell Lines; T-cell line 165-B5G, 2.5 μg/mL antigen, Day 55 of culturing, No Antigen Value 846
  Proliferation (luminescent ATP assay), Mean: 1724 RLU
Donor 3 GMA T-Cell Lines; T-cell line 165-B5G, 5 μg/mL antigen, Day 55 of culturing, No Antigen Value 846
  Proliferation (luminescent ATP assay), Mean: 1666 RLU
Donor 3 GMA T-Cell Lines; T-cell line 165-B5G, 10 μg/mL antigen, Day 55 of culturing, No Antigen Value 846
  Proliferation (luminescent ATP assay), Mean: 2705 RLU
Donor 3 GMA T-Cell Lines; T-cell line 165-C5G, 1.25 μg/mL antigen, autologous B-LCL
  Proliferation (luminescent ATP assay), Mean: 527 RLU
Donor 3 GMA T-Cell Lines; T-cell line 165-C5G, 2.5 μg/mL antigen, autologous B-LCL
  Proliferation (luminescent ATP assay), Mean: 680 RLU
Donor 3 GMA T-Cell Lines; T-cell line 165-C5G, 5 μg/mL antigen, autologous B-LCL
  Proliferation (luminescent ATP assay), Mean: 3010 RLU
Donor 3 GMA T-Cell Lines; T-cell line 165-C5G, 10 μg/mL antigen, autologous B-LCL
  Proliferation (luminescent ATP assay), Mean: 34438 RLU
Donor 3 GMA T-Cell Lines; T-cell line 165-E7G, 1.25 μg/mL antigen, autologous B-LCL, Day 55
  Proliferation (luminescent ATP assay), Mean: 2785 RLU
Donor 3 GMA T-Cell Lines; T-cell line 165-E7G, 2.5 μg/mL antigen, autologous B-LCL, Day 55
  Proliferation (luminescent ATP assay), Mean: 5270 RLU
Donor 3 GMA T-Cell Lines; T-cell line 165-E7G, 5 μg/mL antigen, autologous B-LCL, Day 55
  Proliferation (luminescent ATP assay), Mean: 3559 RLU
Donor 3 GMA T-Cell Lines; T-cell line 165-E7G, 10 μg/mL antigen, autologous B-LCL, Day 55
  Proliferation (luminescent ATP assay), Mean: 1983 RLU
Donor 3 GMA T-Cell Lines; T-cell line 165-E9G, 1.25 μg/mL antigen, autologous B-LCL
  Proliferation (luminescent ATP assay), Mean: 132 RLU
Donor 3 GMA T-Cell Lines; T-cell line 165-E9G, 2.5 μg/mL antigen, autologous B-LCL
  Proliferation (luminescent ATP assay), Mean: 129 RLU
Donor 3 GMA T-Cell Lines; T-cell line 165-E9G, 5 μg/mL antigen, autologous B-LCL
  Proliferation (luminescent ATP assay), Mean: 89 RLU
Donor 3 GMA T-Cell Lines; T-cell line 165-E9G, 10 μg/mL antigen, autologous B-LCL
  Proliferation (luminescent ATP assay), Mean: 91 RLU
Donor 3 GMA T-Cell Lines; T-cell line 165-F5G, 1.25 μg/mL antigen, autologous B-LCL
  Proliferation (luminescent ATP assay), Mean: 126 RLU
Donor 3 GMA T-Cell Lines; T-cell line 165-F5G, 2.5 μg/mL antigen, autologous B-LCL
  Proliferation (luminescent ATP assay), Mean: 113 RLU
Donor 3 GMA T-Cell Lines; T-cell line 165-F5G, 5 μg/mL antigen, autologous B-LCL
  Proliferation (luminescent ATP assay), Mean: 136 RLU
Donor 3 GMA T-Cell Lines; T-cell line 165-F5G, 10 μg/mL antigen, autologous B-LCL
  Proliferation (luminescent ATP assay), Mean: 129 RLU
Donor 3 GMA T-Cell Lines; T-cell line 165-F10G, 1.25 μg/mL antigen, autologous B-LCL
  Proliferation (luminescent ATP assay), Mean: 1145 RLU
Donor 3 GMA T-Cell Lines; T-cell line 165-F10G, 2.5 μg/mL antigen, autologous B-LCL
  Proliferation (luminescent ATP assay), Mean: 1270 RLU
Donor 3 GMA T-Cell Lines; T-cell line 165-F10G, 5 μg/mL antigen, autologous B-LCL
  Proliferation (luminescent ATP assay), Mean: 1552 RLU
Donor 3 GMA T-Cell Lines; T-cell line 165-F10G, 10 μg/mL antigen, autologous B-LCL
  Proliferation (luminescent ATP assay), Mean: 8012 RLU
Donor 3 GMA T-Cell Lines; T-cell line 165-H11G, 1.25 μg/mL antigen, autologous B-LCL
  Proliferation (luminescent ATP assay), Mean: 15 RLU
Donor 3 GMA T-Cell Lines; T-cell line 165-H11G, 2.5 μg/mL antigen, autologous B-LCL
  Proliferation (luminescent ATP assay), Mean: 326 RLU
Donor 3 GMA T-Cell Lines; T-cell line 165-H11G, 5 μg/mL antigen, autologous B-LCL
  Proliferation (luminescent ATP assay), Mean: 357 RLU
Donor 3 GMA T-Cell Lines; T-cell line 165-H11G, 10 μg/mL antigen, autologous B-LCL
  Proliferation (luminescent ATP assay), Mean: 178 RLU
Donor 4 COP T-Cell Lines; 205-1F4 (sentence prints 165-1F4), Day 71, 0, 1, 3, 10 μg/mL
  reactivity to non-canonical GA peptides: showed reactivity
Donor 4 COP T-Cell Lines; 205-1F4 (sentence prints 165-1F4), Day 80, 1, 2, 5, 10 μg/mL
  reactivity to non-canonical GA peptide: showed reactivity
Donor 4 COP T-Cell Lines; 205-1F4, Day 71, dose of 10 μg/mL antigen (text: Table 60)
  response relative to the no antigen control: 76.5 fold
Donor 4 COP T-Cell Lines; 205-1F4, Day 80, dose of 10 μg/mL antigen (Table 58)
  response relative to the no antigen control: 17.3 fold
Donor 4 COP T-Cell Lines; 205-1F4, at least one proliferation value >=2 times no antigen control
  Non-Canonical Peptide Reactivity: LT 11
Donor 4 COP T-Cell Lines; 205-1F4, text Day 80, dose of 10 μg/mL antigen (text: Table 59)
  response relative to the no antigen control: 10.4 fold
Donor 4 COP T-Cell Lines; 205-1H3
  Non-Canonical Peptide Non-Reactivity: LT 11
Donor 4 COP T-Cell Lines; 205-1H11
  Non-Canonical Peptide Non-Reactivity: LT 11
Donor 4 COP T-Cell Lines; Donor 4 COP lines, at least a 50% increase in proliferation relative to a control after stimulation with the non-canonical GA peptide
  Reactive T-Cell Line: 205-1F4 (Donor 4)
Donor 4 COP T-Cell Lines; Donor 4 COP lines, stimulation with the non-canonical GA peptide
  Nonreactive T-Cell Line: 205-1H3 (Donor 4)
Donor 4 COP T-Cell Lines; Day 71, 1 μg/mL antigen
  Proliferation (luminescent ATP assay), Mean: 73850
Donor 4 COP T-Cell Lines; Day 71, 3 μg/mL antigen
  Proliferation (luminescent ATP assay), Mean: 154321
Donor 4 COP T-Cell Lines; Day 71, 10 μg/mL antigen
  Proliferation (luminescent ATP assay), Mean: 158776
Donor 4 COP T-Cell Lines; Day 80, 1 μg/mL antigen
  Proliferation (luminescent ATP assay), Mean: 3,675
Donor 4 COP T-Cell Lines; Day 80, 2 μg/mL antigen
  Proliferation (luminescent ATP assay), Mean: 4,589
Donor 4 COP T-Cell Lines; Day 80, 5 μg/mL antigen
  Proliferation (luminescent ATP assay), Mean: 7,626
Donor 4 COP T-Cell Lines; Day 80, 10 μg/mL antigen
  Proliferation (luminescent ATP assay), Mean: 8,853
Donor 4 COP T-Cell Lines; T-cell line 205-1H3, 1 μg/mL antigen, 0 μg/mL 4121.0
  Reactivity (proliferation), Mean: 4780.3
Donor 4 COP T-Cell Lines; T-cell line 205-1H3, 3 μg/mL antigen, 0 μg/mL 4121.0
  Reactivity (proliferation), Mean: 3083.3
Donor 4 COP T-Cell Lines; T-cell line 205-1H3, 10 μg/mL antigen, 0 μg/mL 4121.0
  Reactivity (proliferation), Mean: 3381.0
Donor 4 COP T-Cell Lines; T-cell line 205-1H11, 1 μg/mL antigen, 0 μg/mL 6941
  Reactivity (proliferation), Mean: 5961 RLU
Donor 4 COP T-Cell Lines; T-cell line 205-1H11, 10 μg/mL antigen, 0 μg/mL 6941
  Reactivity (proliferation), Mean: 6698 RLU
Donor 4 COP T-Cell Lines; T-cell line 205-1H11, 30 μg/mL antigen, 0 μg/mL 6941
  Reactivity (proliferation), Mean: 4303 RLU
Donor 3 COP T-Cell Lines; 165-C4C
  Non-Canonical Peptide Reactivity: LT 11
Donor 3 COP T-Cell Lines; 165-C7C
  Non-Canonical Peptide Reactivity: LT 11
Donor 3 COP T-Cell Lines; 165-F3C (Day 77) and 165-C4C (Day 66), 0, 1, 3, 10 μg/mL
  proliferation response to non-canonical GA peptides: responded well
Donor 3 COP T-Cell Lines; 165-F3C
  Non-Canonical Peptide Reactivity: LT 11
Donor 3 COP T-Cell Lines; 165-F6C, proliferation <2 times no antigen control
  Non-Canonical Peptide Non-Reactivity: LT 11
Donor 3 COP T-Cell Lines; Donor 3 COP lines, at least a 50% increase in proliferation relative to a control after stimulation with the non-canonical GA peptide
  Reactive T-Cell Line: 165-C4C (Donor 3) and 165-C7C (Donor 3) and 165-F3C (Donor 3)
Donor 3 COP T-Cell Lines; Donor 3 COP lines, stimulation with the non-canonical GA peptide
  Nonreactive T-Cell Line: 165-F6C (Donor 3)
Donor 3 COP T-Cell Lines; T-cell line 165-C4C, 1 μg/mL antigen, Day 66 of culture, 0 μg/mL 1881
  Proliferation (luminescent ATP assay), Mean: 2430
Donor 3 COP T-Cell Lines; T-cell line 165-C4C, 3 μg/mL antigen, Day 66 of culture, 0 μg/mL 1881
  Proliferation (luminescent ATP assay), Mean: 2701
Donor 3 COP T-Cell Lines; T-cell line 165-C4C, 10 μg/mL antigen, Day 66 of culture, 0 μg/mL 1881
  Proliferation (luminescent ATP assay), Mean: 4129
Donor 3 COP T-Cell Lines; T-cell line 165-C7C, 1.25 μg/mL antigen, autologous B-LCL
  Proliferation (luminescent ATP assay), Mean: 418 RLU
Donor 3 COP T-Cell Lines; T-cell line 165-C7C, 2.5 μg/mL antigen, autologous B-LCL
  Proliferation (luminescent ATP assay), Mean: 305 RLU
Donor 3 COP T-Cell Lines; T-cell line 165-C7C, 5 μg/mL antigen, autologous B-LCL
  Proliferation (luminescent ATP assay), Mean: 244 RLU
Donor 3 COP T-Cell Lines; T-cell line 165-C7C, 10 μg/mL antigen, autologous B-LCL
  Proliferation (luminescent ATP assay), Mean: 119 RLU
Donor 3 COP T-Cell Lines; T-cell line 165-F3C, 1 μg/mL antigen, Day 77 of culture, 0 μg/mL 1563
  Proliferation (luminescent ATP assay), Mean: 2144
Donor 3 COP T-Cell Lines; T-cell line 165-F3C, 3 μg/mL antigen, Day 77 of culture, 0 μg/mL 1563
  Proliferation (luminescent ATP assay), Mean: 2605
Donor 3 COP T-Cell Lines; T-cell line 165-F3C, 10 μg/mL antigen, Day 77 of culture, 0 μg/mL 1563
  Proliferation (luminescent ATP assay), Mean: 3608
Donor 3 COP T-Cell Lines; T-cell line 165-F6C, 1.25 μg/mL antigen, Day 76 of culture, No Antigen value 517
  Proliferation (luminescent ATP assay), Mean: 431
Donor 3 COP T-Cell Lines; T-cell line 165-F6C, 2.5 μg/mL antigen, Day 76 of culture, No Antigen value 517
  Proliferation (luminescent ATP assay), Mean: 518
Donor 3 COP T-Cell Lines; T-cell line 165-F6C, 5 μg/mL antigen, Day 76 of culture, No Antigen value 517
  Proliferation (luminescent ATP assay), Mean: 490
Donor 3 COP T-Cell Lines; T-cell line 165-F6C, 10 μg/mL antigen, Day 76 of culture, No Antigen value 517
  Proliferation (luminescent ATP assay), Mean: 736
